In patent US20230339968A1, “KRAS Gl2C INHIBITORS” (Eli Lilly and Company, priority 2019, published 2023):
Where two headings read alike, the source gives them in different places.

Assays:
H23 (lung) = experiment: CellTiterGlo Cell Proliferation Assay (2D), H23; type: cell-based; settings: 96 hours
Protocol: (§1) The purpose of this assay is to evaluate the growth of KRas G12C mutant tumor lines following treatment with a test compound. A panel of tumor cell lines harboring KRas G12C or other KRas mutations are collected (Table 25). All cell lines are from ATCC or other sources indicated.
(§2) Typically cells are cultured in RPMI1640 or Dulbecco's modified Eagle's medium (DMEM, GIBCO) supplemented with 10% FBS (GIBCO, Invitrogen). […] The cells are treated with compound for 96 hours, and then are analyzed for viability using the CellTiterGlo® Luminescent Cell Viability Assay® (Promega #G7572 for 2D) according to manufacturer's instructions and an EnVision™ plate reader. Nonlinear regression and sigmoidal dose-response curves are used to calculate the half maximal inhibitory concentration (IC50) with GraphPad Prism 4® software.

UM-UC-3 (bladder) = experiment: CellTiterGlo Cell Proliferation Assay (2D), UM-UC-3; type: cell-based; settings: Homo sapiens, UMUC3, 96 hours
Protocol: as §1, §2

SW756 (cervix) = experiment: CellTiterGlo Cell Proliferation Assay (2D), SW756; type: cell-based; settings: Homo sapiens, 96 hours
Protocol: as §1, §2

H2122 (lung) = experiment: CellTiterGlo Cell Proliferation Assay (2D), H2122; type: cell-based; settings: Homo sapiens, NCI-H2122, 96 hours
Protocol: as §1, §2

Calu-1 (lung) = experiment: CellTiterGlo Cell Proliferation Assay (2D), Calu-1; type: cell-based; settings: Homo sapiens, 96 hours
Protocol: as §1, §2

H358 (lung) = experiment: CellTiterGlo Cell Proliferation Assay (2D), H358; type: cell-based; settings: Homo sapiens, NCI-H358, 96 hours
Protocol: as §1, §2

SW1463 (colon) = experiment: CellTiterGlo Cell Proliferation Assay (2D), SW1463; type: cell-based; settings: Homo sapiens, 96 hours
Protocol: as §1, §2

KYSE-410 (esoph) = experiment: CellTiterGlo Cell Proliferation Assay (2D), KYSE-410; type: cell-based; settings: Homo sapiens, 96 hours
Protocol: as §1, §2

A549 (lung) = experiment: CellTiterGlo Cell Proliferation Assay (2D), A549 (KRas G12S); type: cell-based; settings: Homo sapiens, A549 (lung, KRas G12S), 2D, 96 hours
Protocol: as §1, §2

MiaPaca-2 (pancr) = experiment: CellTiterGlo Cell Proliferation Assay (2D), MiaPaca-2; type: cell-based; settings: Homo sapiens, MIA PaCa-2, 96 hours
Protocol: as §1, §2

active KRas = active KRas (Homo sapiens, UniProt P01116, G12C); experiment: In vivo target inhibition, active KRas ELISA of tumor lysates, lung cancer H358 xenograft model; parameters: from tissue; host or cells: H358 xenograft tumours grown subcutaneously in nude female mice; settings: NCI-H358, mouse, H358 model, single dose 30 mg/kg, read-out: % Inhibition of Active Ras
active KRas, sequence (P01116 1-188 isoform P01116-2 G12C): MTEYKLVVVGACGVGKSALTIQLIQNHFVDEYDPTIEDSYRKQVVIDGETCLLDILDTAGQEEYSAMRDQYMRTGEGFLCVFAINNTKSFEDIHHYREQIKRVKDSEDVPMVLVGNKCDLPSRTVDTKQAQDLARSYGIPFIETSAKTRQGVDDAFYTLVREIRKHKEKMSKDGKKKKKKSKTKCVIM
Protocol: (§3) The purpose of these assays is to evaluate in vivo target inhibition of an orally administered test compound. Human lung cancer H358 cells, or pancreatic cancer MiaPaca-2 cells, are implanted into nude mice xenograft tumor models. H358 or MiaPaca-2 cells (10×106 in a 1:1 Matrigel® mix, 0.2 mL total volume) are implanted by subcutaneous injection in hind leg of nude female mice (Harlan Laboratories). […] Treatment is initiated with oral administration (gavage) of a test compound or vehicle (20% Captisol®, 25 mM phosphate, pH 2.0 in 0.2 mL) when the tumor size reaches approximately 300 mg.
(§4) For in vivo target inhibition and PD analysis, tumors are ground by mortar and pestle on dry ice and tumor fragments are added to 800 μL of lysis buffer containing 1% Triton™ X-100, 25 mM Tris pH7.5, 150 mM sodium chloride, 1 mM EDTA, and 1 mM EGTA with Halt protease and phosphatase inhibitor cocktail (Thermo Scientific, cat. no. 1861281) in lysing matrix D tubes (MP Biomedical®, cat. no. 6913-500) with one additional large bead (MP Biomedical® ¼″ ceramic sphere bead cat. no. 6540-412) per tube. Tumor fragments are homogenized in a Thermo Bio101® fast prep (FP120) at setting 4 for […] while cold for a total of 2 times. Lysates are spun at 14,000 rpm for 10 minutes at 4° C. to clarify. Protein estimation is done on the lysate supernatant using a BioRad Dc® protein assay and lysates are diluted in complete lysis/binding buffer from the Ras GTPase Chemi ELISA Kit® (Active Motif, cat. no. 52097). The active KRas ELISA is performed as follows: glutathione-coated ELISA wells are incubated with diluted RAF1-GST in complete lysis/binding buffer for 1 hour at 4° C. with gentle agitation. Wells are washed 3 times with wash buffer and 100 μg of lysates are added to each well and incubated at ambient temperature for 1 hour with mild agitation. The wells are washed an additional 3 times, then primary antibody, diluted in antibody binding buffer, is added to each well. The plates are incubated for 1 hour. The wells are washed 3 more times before adding HRP-conjugated secondary antibody, diluted in antibody binding buffer, to each well. The plates are incubated at ambient temperature for 1 hour. ELISA wells are washed 4 times, chemiluminescent reagent is added and then luminescence is read. For pERK Meso Scale Discovery ELISA, 25 μg of protein containing 0.1% SDS is used; Meso Scale Discovery Whole Cell Lysate Kit for pERK is provided by Meso Scale Discovery.
(§5) The purpose of this assay is to evaluate the dose dependent in vivo target inhibition and pharmacodynamic effects in a lung cancer model. The test compound is dosed in lung cancer H358 mouse xenograft model at a dose range from 12.5 to 100 mg/kg. The tumor samples are collected 8 hours post a single dose. The tumor lysates are prepared and the inhibition of pERKand active KRas is measured as described above.
(§6) The purpose of this assay is to evaluate the time dependent in vivo target inhibition and pharmacodynamic effects in a lung cancer model. […] After a single dose, the tumor samples are harvested at 2, 4, 8, 12 and 24 hour post doing. The tumor lysates are prepared and the inhibition of pERK and active KRas is measured as described above.

pERK = experiment: In vivo pharmacodynamic effect, pERK Meso Scale Discovery ELISA of tumor lysates, lung cancer H358 xenograft model; parameters: species or system mouse; settings: H358 model, single dose 30 mg/kg; for inhibition at 30 mg/kg: Mus musculus, read-out: % inhibition of pERK
Protocol: as §3, §4, §5, §6

H2030 (lung) = experiment: CellTiterGlo Cell Proliferation Assay (2D), H2030; type: cell-based; settings: Homo sapiens, NCI-H2030, 96 hours
Protocol: as §1, §2

IC50 (SW756 (cervix)): 2520 nM
IC50 (H2122 (lung)): 1360 nM
IC50 (Calu-1 (lung)): 2920 nM
IC50 (H358 (lung)): 8 nM
IC50 (SW1463 (colon)): 14 nM
IC50 (A549 (lung)): 9500 nM
IC50 (MiaPaca-2 (pancr)): 81 nM
inhibition at 30 mg/kg (active KRas; 2 h): 72.6%
inhibition at 30 mg/kg (active KRas; 4 h): 72.4%
inhibition at 30 mg/kg (active KRas; 8 h): 88.5%
inhibition at 30 mg/kg (active KRas; 24 h): 43.2%
IC50 (H2030 (lung)): > 10000 nM
Structure (SMILES): C=CC(=O)N1CCN2C(=O)c3cc(F)c(-c4ccc(F)c5sc(N)c(C#N)c45)c(Cl)c3OC[C@H]2C1 [Example 36, 4-[(4aR)-7-Chloro-9-fluoro-11-oxo-3-prop-2-enoyl-2,4,4a,5-tetrahydro-1H-pyrazino[2,1-c][1,4]benzoxazepine-8-yl]-2-amino-7-fluoro-benzothiophene-3-carbonitrile]
IC50 (H23 (lung)): 100 nM
inhibition at 10 µM (H23 (lung); 10 μM): 96.7%
IC50 (UM-UC-3 (bladder)): 1860 nM
inhibition at 10 µM (UM-UC-3 (bladder); 10 μM): 91.6%
inhibition at 10 µM (SW756 (cervix); 10 μM): 58.1%
inhibition at 10 µM (H2122 (lung); 10 μM): 92.8%
inhibition at 10 µM (Calu-1 (lung); 10 μM): 77.4%
inhibition at 10 µM (H358 (lung); 10 μM): 89.1%
inhibition at 10 µM (SW1463 (colon); 10 μM): 82.7%
IC50 (KYSE-410 (esoph)): > 10000 nM
inhibition at 10 µM (KYSE-410 (esoph); 10 μM): 43.1%
inhibition at 10 µM (A549 (lung); 10 μM, read-out: % inh. @ 10 μM): 62.1%
inhibition at 10 µM (MiaPaca-2 (pancr); 10 μM): 79.6%
% inhibition of pERK (pERK; 8 h, 30 mg/kg): 86.9%
inhibition at 30 mg/kg (pERK; NCI-H358, 2 h, 2 h): 79.7%
inhibition at 30 mg/kg (pERK; NCI-H358, 4 h, 4 h): 84.2%
inhibition at 30 mg/kg (pERK; NCI-H358, 8 h, 8 h): 82.6%
inhibition at 30 mg/kg (pERK; NCI-H358, 24 h, 24 h): 48.8%
inhibition at 10 µM (H2030 (lung); 10 μM): 55.8%
